Consider 9 compounds from patent publication US6552021B2, “Pharmaceutical compounds” (Xenova Limited, priority 2000, dated 2003).

Read-outs that look alike come from different tables or passages of the source.

Data set [1] has as its system H69 parental (H69/P) human small cell lung carcinoma cell line. In words: Cytotoxicity in H69 parental cells (AlamarBlue). It is filed as cell-based. Particulars: 5-6 days incubation, concentration required to give 50% cell kill. The procedure: (§1) The cytotoxicity of compounds of formula (I) was measured using the H69 parental (H69/P) human small cell lung carcinoma cell line and the drug resistant human small cell lung carcinoma cell line H69/LX4 which overexpresses P-glycoprotein (Pgp).
(§2) H69/P and H69/LX4 cells were pipetted into 96-well tissue culture plates and then allowed to incubate at 37° C. for 4 h. A range of concentrations from 0.01 nM to 5 μM of compounds of formula (I) or the standards TAS-103, Doxorubicin and Topotecan were then added. The plates were incubated for 5-6 days before adding AlamarBlue to each well and returning the plates to the incubator for 5-8 h to allow colour development. The cell numbers in the plates at the end of this period were directly proportional to the absorbance measured at a wavelength of 570 nm (reference wavelength 600 nm).

Data set [2] has as its system H69/LX4 human small cell lung carcinoma cell line which overexpresses P-glycoprotein (Pgp). Description: Cytotoxicity in drug resistant H69/LX4 cells (AlamarBlue). Particulars: for Rf (resistance factor): IC50 in H69/LX4 divided by IC50 in H69/P. As for the experimental part:
as §1, §2

For data set [3], the system named is COR-L23 parental (COR-L23/P) human non-small cell lung carcinoma cell line. In words: Cytotoxicity in COR-L23 parental cells (SRB assay). The data set is classed as cell-based. The procedure: The cytotoxicity of the compounds described herein was also measured using the COR-L23 parental (COR-L23/P) human non-small cell lung carcinoma cell line and also the drug resistant human non-small cell lung carcinoma cell line COR-L23/R which overexpresses multidrug resistance associated protein (MRP). The cytotoxicity, as measured by the IC50 (concentration required to give 50% cell kill) in the L23/R cell line divided by the cytotoxicity in the L23/P cell line gives an indication of the degree to which a compound may be affected by MRP-dependant MDR and is termed the resistance factor (Rf) of the compound.
(§3) L23/P and L23/R cells were pipetted into 96-well tissue culture plates and then allowed to incubate at 37° C. for 4 h. A range of concentrations from 0.01 nM to 5 μM of compounds of formula (I) or the standards TAS-103, Doxorubicin and Topotecan were then added. The plates were incubated for 5-6 days before proliferation was assessed using the sulphurhodamine B (SRB) assay as described by Skehan et al, J Natl Cancer Inst 1990, 82, pp1107-1112.

The test system of data set [4] is COR-L23/R human non-small cell lung carcinoma cell line which overexpresses multidrug resistance associated protein (MRP). In words: Cytotoxicity in drug resistant COR-L23/R cells (SRB assay). It is filed as cell-based. Particulars: for Rf (resistance factor): IC50 in L23/R divided by IC50 in L23/P; for IC50: L23/R cells (MRP overexpressing), 5-6 days incubation, SRB. The procedure:
(§4) The cytotoxicity of the compounds described herein was also measured using the COR-L23 parental (COR-L23/P) human non-small cell lung carcinoma cell line and also the drug resistant human non-small cell lung carcinoma cell line COR-L23/R which overexpresses multidrug resistance associated protein (MRP).
as §3

Data set [5] has as its system Jurkat human leukaemia cell line (JLC). In words: Cytotoxicity in Jurkat cells (JLC). It is filed as cell-based. The procedure:
(§5) The cytotoxicity of the compounds described herein was also measured using the Jurkat human leukaemia cell line (JLC) and also the amsacrine-resistant Jurkat human leukaemia cell line (JLA) and the doxorubicin-resistant Jurkat human leukaemia cell line (JLD). The cytotoxicity, as measured by the IC50 (concentration required to give 50% cell kill) in the JLA or JLD cell line divided by the cytotoxicity in the JLC cell line gives an indication of the degree to which a compound may be affected by atypical drug resistance and is termed the resistance factor (Rf) of the compound. The method used has been described previously (Finlay et al, Eur J. Cancer 32A, 708-714, 1996). Compounds were active in the range 1 nM to 5 μM.

Data set [6] has as its system amsacrine-resistant Jurkat human leukaemia cell line (JLA). Description: Cytotoxicity in amsacrine-resistant Jurkat cells (JLA). Particulars: for Rf(JLA/JLC): IC50 in JLA divided by IC50 in JLC; for IC50: JLA cells (amsacrine-resistant). It is filed as cell-based. The procedure: as §5
The test system of data set [7] is doxorubicin-resistant Jurkat human leukaemia cell line (JLD). In words: Cytotoxicity in doxorubicin-resistant Jurkat cells (JLD). It is filed as cell-based. Particulars: for Rf(JLD/JLC): IC50 in JLD divided by IC50 in JLC; for IC50: JLD cells (doxorubicin-resistant). As for the experimental part: as §5
The target in another data set is T1, topoisomerase I (Homo sapiens, UniProt P11387).
T1 sequence (P11387 1-765): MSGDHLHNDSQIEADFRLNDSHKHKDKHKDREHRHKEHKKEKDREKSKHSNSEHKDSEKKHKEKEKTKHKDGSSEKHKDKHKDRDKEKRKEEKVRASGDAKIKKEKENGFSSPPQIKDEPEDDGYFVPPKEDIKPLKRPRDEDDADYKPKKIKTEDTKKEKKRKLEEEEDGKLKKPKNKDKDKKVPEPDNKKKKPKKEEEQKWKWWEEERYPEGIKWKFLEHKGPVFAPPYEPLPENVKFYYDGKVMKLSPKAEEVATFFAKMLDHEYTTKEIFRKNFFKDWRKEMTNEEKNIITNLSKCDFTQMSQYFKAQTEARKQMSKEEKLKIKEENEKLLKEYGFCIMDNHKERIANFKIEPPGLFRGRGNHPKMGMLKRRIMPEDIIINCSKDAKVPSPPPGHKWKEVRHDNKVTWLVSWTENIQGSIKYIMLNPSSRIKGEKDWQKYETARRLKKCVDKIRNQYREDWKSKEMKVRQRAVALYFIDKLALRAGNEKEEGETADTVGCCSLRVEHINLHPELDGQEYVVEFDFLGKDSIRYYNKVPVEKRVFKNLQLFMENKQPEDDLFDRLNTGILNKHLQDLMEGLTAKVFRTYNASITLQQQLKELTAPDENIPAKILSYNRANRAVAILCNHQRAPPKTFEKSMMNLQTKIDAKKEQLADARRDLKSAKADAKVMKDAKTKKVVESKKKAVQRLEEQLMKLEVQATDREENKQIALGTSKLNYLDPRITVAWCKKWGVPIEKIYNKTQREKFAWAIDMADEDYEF
Description: Stabilization of cleavable complexes with topoisomerase I. The data set is classed as biochemical. Particulars: range where an increase in cleavable complexes was observed relative to controls. The text has this:
(§6) Compounds were also studied for their ability to stabilize cleavable complexes in the presence of either topoisomerase I or II essentially as described previously (Finlay et al, Eur. J. Cancer 32A, 708-714, 1996). Presence of cleavable complexes was indicated by an increase in the number and intensity of bands observed after electrophoresis and autoradiography. The results are expressed as the effective concentration range where an increase in cleavable complexes was observed relative to controls in the absence of drug.

The test system of a further data set is topoisomerase II. Description: Stabilization of cleavable complexes with topoisomerase II. The data set is classed as biochemical. The note with it: range where an increase in cleavable complexes was observed relative to controls.
Text: as §6

Data set [8] in a line: Cytotoxicity in drug resistant COR-L23/R cells (SRB assay). It is filed as cell-based, human. Particulars: Homo sapiens, COR-L23/R; L23/R cells (MRP overexpressing), 5-6 days incubation, SRB. As for the experimental part: as §4, §3
Where [9] appears, read: Homo sapiens, read-out: H69/LX4 IC50.
The mark [10] stands for this setting: Homo sapiens, COR-L23, 5-6 days incubation.

On to `CN(C)CCNC(=O)c1cccc2nc3ccc4cnccc4c3nc12` [Compound 2, Pyrido[4,3-α]phenazine-11-carboxylic acid (2-dimethylamino-ethyl)-amide], for which the IC50 in data set [1] came out at 88 nM; in data set [2], 56 nM; in [3] (5-6 days incubation) it was 22 nM; in data set [4] it was 56 nM; in data set [5], 28 nM; in data set [6] it was 84 nM. In data set [7], this compound returned an IC50 of 78 nM. Also, the “Rf (resistance factor)” value in data set [2] was determined as 0.6; in [4] it was 2.5. Besides, the “Rf(JLA/JLC)” value in data set [6] came to 3. The “Rf(JLD/JLC)” value in [7] is 2.8.

Regarding `CN(C)CCNC(=O)c1cccc2nc3ccc4ncccc4c3nc12` [Compound 3, Pyrido[3,2-α]phenazine-11-carboxylic acid (2-dimethylamino-ethyl)-amide], the IC50 in data set [1] turned out to be 123 nM; in data set [2], 133 nM; in [3] (5-6 days incubation), 48 nM; in data set [4], 71 nM; in data set [5] it was 74 nM; in data set [6], 235 nM. The compound further showed an IC50 in [7] of 52 nM. Also, the entries for the “Rf (resistance factor)” value in data set [2] and in data set [4] were 1.1 and 1.5, respectively. In addition, the “Rf(JLA/JLC)” value in data set [6] is recorded as 2.8. The “Rf(JLD/JLC)” value in [7] worked out at 0.7.

Consider `COc1nccc2c1ccc1nc3cccc(C(=O)NCCN(C)C)c3nc12` [Compound 5, 4-Methoxypyrido[4,3-α]phenazine-11-carboxylic acid (2-dimethylamino-ethyl)-amide], for which the IC50 was 21 nM in data set [1]; 26 nM in [2]; 14 nM in [3] (5-6 days incubation); 16 nM in data set [4]; 17 nM in data set [5]; 12 nM in [6]. The compound further came in with an IC50 in data set [7] of 12 nM. The entries for the “Rf (resistance factor)” value in [2] and in data set [4] were 1.3 and 1.1, respectively. The “Rf(JLA/JLC)” value in data set [6] is given as 0.7. Further, in data set [7], the “Rf(JLD/JLC)” value is reported as 0.7. The “Effective concentration range, Topoisomerase I” value on topoisomerase I was 0.1 to 3.0 µM. In the data set on topoisomerase II, the “Effective concentration range, Topoisomerase II” value was 0.1 to 3.0 µM.

`COc1nccc2c1ccc1nc3cccc(C(=O)N[C@H](C)CN(C)C)c3nc12` [Compound 6, 4-Methoxypyrido[4,3-α]phenazine-11-carboxylic acid (2-dimethylamino-1-(R)-methyl-ethyl)-amide]: the IC50 worked out at 24 nM in data set [1]; 29 nM in data set [2]; 12 nM in data set [3] (5-6 days incubation); 15 nM in data set [4]; 10 nM in data set [5]; 7 nM in data set [6]. For the same compound, in data set [7], the IC50 is 9 nM. For the same compound, the “Rf (resistance factor)” value in [2] amounted to 1.2; in data set [4] it was 1.3. In data set [6], the “Rf(JLA/JLC)” value came out at 0.7. Besides, the “Rf(JLD/JLC)” value in data set [7] was 0.9. In addition, the “Effective concentration range, Topoisomerase I” value at topoisomerase I was 0.1 to 3.0 µM. Also, the “Effective concentration range, Topoisomerase II” value in the data set on topoisomerase II lay in the range of 0.1 to 3.0 µM.

On to `COc1nccc2c1ccc1nc3cccc(C(=O)N[C@H](CO)CN(C)C)c3nc12` [Compound 9, 4-Methoxypyrido[4,3-α]phenazine-11-carboxylic acid (2-dimethylamino-1-(S)-hydroxymethyl-ethyl)-amide], for which the IC50 turned out to be 24 nM in data set [1], 28 nM in data set [2], 4 nM in data set [3] (5-6 days incubation) and 6 nM in data set [4]. Moreover, the “Rf (resistance factor)” value in data set [2] was 1.2; in [4] it was 1.5.

With `CN(C)CCNC(=O)c1cccc2nc3ccc4cnn(C)c4c3nc12` [Compound 13, 1-Methyl-1H-pyrazolo[3,4-α]phenazine-10-carboxylic acid (2-dimethylamino-ethyl)-amide], the IC50 amounted to 109 nM in data set [1]; 97 nM in [2]; 44 nM in data set [5]; 44 nM in [6]; 48 nM in [7]. The “Rf (resistance factor)” value in data set [2] was determined as 0.9. Besides, the “Rf(JLA/JLC)” value in [6] is 1. Moreover, the “Rf(JLD/JLC)” value in data set [7] worked out at 1.1.

On to `COc1cccc2c1C(=O)c1c(O)c3c(c(O)c1C2=O)C[C@@](O)(C(=O)CO)C[C@@H]3O[C@H]1C[C@H](N)[C@H](O)[C@H](C)O1` [Doxorubicin, reference compound], for which the IC50 in data set [2] (setting [9]) was 3700 nM; in data set [3] (setting [10]), 20.3 nM; in data set [8], 327 nM; in [5] (Homo sapiens, Jurkat) it was 7 nM; in data set [6] (Homo sapiens, Jurkat) it was 25.9 nM; in data set [7] (Homo sapiens, Jurkat), 109 nM. Also, the results for the “Rf (resistance factor)” value in data set [2] and in data set [4] were 135 and 16.1, respectively. The “Rf(JLA/JLC)” value in [6] was found to be 3.7.

On to `CN(C)CCNc1nc2cc(O)ccc2c2c1C(=O)c1ccccc1-2` [TAS-103, reference compound], for which the IC50 was determined as 21 nM in data set [1]; 22 nM in data set [2] (read-out: H69/LX4 IC50, H69/LX4 cells (Pgp overexpressing), 5-6 days incubation); 16.3 nM in [3] (5-6 days incubation); 22 nM in data set [4]; 5.4 nM in [5]; 302 nM in [6]. Moreover, in data set [7], the IC50 turned out to be 384 nM. In addition, the “Rf (resistance factor)” value in data set [2] is listed as 1.1; in data set [4], 1.3. In addition, in data set [6], the “Rf(JLA/JLC)” value is reported as 55.9. The “Rf(JLD/JLC)” value in [7] was found to be 71.1. Further, the “Effective concentration range, Topoisomerase I” value at topoisomerase I lay in the range of 0.3 to 10.0 µM. The “Effective concentration range, Topoisomerase II” value in the data set on topoisomerase II was in the range of 0.3 to 10.0 µM.

Turning to `CC[C@@]1(O)C(=O)OCc2c1cc1n(c2=O)Cc2cc3c(CN(C)C)c(O)ccc3nc2-1` [Topotecan, reference compound], the IC50 in [2] (setting [9]) was 61.5 nM; in data set [3] (setting [10]), 13.6 nM; in [8] it was 20.8 nM. Besides, the “Rf (resistance factor)” value in data set [2] was 3.9; in data set [4], 1.5.
